Test results as given in patent US9492428B2, “Compounds, compositions, pharmaceutical compositions, and methods of use” (University of Louisville Research Foundation, Inc., priority 2011, dated 2016).

Legend:
DU145 cells = assay: Annexin V-FITC / propidium iodide flow cytometry (apoptosis); format: cell-based, human
Protocol: FIG. 9. Effect of compound I-1 at 5 μM on cell cycle and apoptosis. Cells were then harvested by trypsinization. (A) For flow cytometric analysis of cell cycle parameters, cells were fixed, and stained with propidium iodide. Each histogram indicates the percent of cells in G1, S, and G2/M phases of the cell cycle. Data were gated to exclude apoptotic cells for these calculations. (B) For apoptosis detection, cells were incubated with FITC-conjugated Annexin V and propidium iodide. Flow cytometric analysis was performed and the histogram for each sample was split into four quadrants to indicate: viable cells (lower left quadrant), apoptotic cells (lower right quadrant), necrotic cells (upper left quadrant), and necrotic/late apoptotic cells (upper right quadrant).
FIG. 13. Assays to detect apoptosis in DU145 cells. Prostate cancer cells were left untreated (−) or treated with 10 μM compound I-1 or with vehicle (DMSO) for the time indicated in the figure. (A) After treatment, cells were harvest by trypsinization, washed with PBS, and then incubated with FITC-conjugated Annexin V and propidium iodide. Flow cytometric analysis was performed. The histogram for each sample was split into four quadrants to indicate: viable cells (lower left quadrant), apoptotic cells (lower right quadrant), necrotic cells (upper left quadrant), and necrotic/late apoptotic cells (upper right quadrant). (B) After treatment, cells were lysed and total lysates were analyzed for cellular apoptotic markers by immunoblotting using anti-[…] or antibodies specific to the activated form of Caspase-3 (cleaved Caspase-3). Anti-GAPDH-1 antibody was used as loading control. (C) Some cells were harvested by trypsinization, washed with PBS, and total DNA was extracted then analyzed on a 1.8% agarose gel. M indicates DNA size marker (base pairs).
Flow cytometric assays of cell cycle and cell death. Cells in fresh complete medium were plated (2×10^5 per well) into six-well plates for 18 h. After complete adhesion, cells were treated as indicated in the figures and harvested by trypsinization. For cell cycle distribution, cells were fixed, and stained with propidium iodide using the Cycle Test Plus kit (Becton Dickinson). For cell death detection, cells were stained with Annexin-V-FITC and propidium iodide using the Apoptosis Detection Kit (BD Biosciences), according to the manufacturer's instructions. Cells were then analyzed by flow cytometry using a FACScalibur cytometer (BD Biosciences, Mountain View, Calif.) and FlowJo program (Tree Star, Inc., Ashland, Oreg.).
Compound I-1 promotes cell death by apoptosis. Because prolonged cell cycle arrest can cause induction of cell death, we next investigated the viability of prostate cancer cells treated with compound I-1. To begin, we used the trypan blue exclusion assay, which is based on the principle that live cells will exclude membrane-impermeable dyes such as trypan blue, whereas trypan blue will get inside the dead cells and stain them. […] To determine whether apoptosis (programmed cell death) is the cause of cell death induced by compound I-1, we examined the cells for biochemical and morphological markers of apoptosis. Cells undergoing apoptosis specifically translocate the membrane phospholipid phosphatidylserine (PS) from the inner face of the plasma membrane to the cell surface; therefore, apoptotic cells can be identified by the presence of PS on the cell surface. Detection of PS is achieved by staining with a fluorescent conjugate of Annexin V, a protein that has a high affinity for PS, followed by flow cytometry analysis. Cells are stained in parallel with propidium iodide (PI), which can only enter the cell when the plasma membrane is damaged. This allows early apoptotic cells (positive for PS, but negative for PI) to be distinguished from late apoptotic and necrotic cells (positive for both PS and PI).

PC3 cells = assay: Immunoblotting of apoptotic markers (cleaved caspase-3, PARP-1) in PC3; format: cell-based, human; conditions: 10 μM, FIG. 11B
Protocol: FIG. 11. Compound I-1 induces cell cycle arrest and apoptosis in PC3 cells. Prostate cancer cells were left untreated (−) or treated with compound I-1 (10 μM) or with vehicle (DMSO) for the time indicated in the figure. (A) For flow cytometric analysis of cell cycle parameters, cells were fixed, and stained with propidium iodide. Each histogram indicates the percent of cells in G1, S, and G2/M phases of the cell cycle. Data were gated to exclude apoptotic cells for these calculations. (B) After treatment, cells were lysed and total lysates were analyzed for cellular apoptotic markers by immunoblotting using anti-PARP-1 or anti-cleaved Caspase-3 antibodies. Anti-GAPDH-1 antibody was used as loading control. (C) Some 48 h-treated PC3 cells were harvest by trypsinization, washed with PBS, and total DNA was extracted then analyzed on a 1.8% agarose gel. M indicates DNA size marker (base pairs).
Cell Culture and Treatment. All cells were obtained from ATCC and were grown in a humidified incubator at 37° C. with 5% CO2. […] All protein concentrations were determined using the bicinchoninic acid (BCA) protein assay (Pierce, Rockford, Ill.).
Immunoblotting. […] Antibody-reactive proteins were detected using a chemiluminescence substrate (SuperSignal; Pierce, Rockford, Ill.) according to the manufacturer's instructions. […]

C[C@@H]1CC[C@H]2C3C(O[C@]4([C@]5(O)CC6(C)C(=O)OC5C[C@@]6(C)O)CC[C@@]31O4)[C@H]1O[C@]13CC=CC(=O)[C@]23C (stereo partly drawn) [I-1]
apoptotic population (DU145 cells; 5 μM, 24 h): 5.2%
apoptotic population (DU145 cells; 5 μM, 48 h): 9.2%
apoptotic population (DU145 cells; 5 μM, 72 h): 11.5%
apoptotic population (DU145 cells; 10 μM, 24 h): 7.4%
apoptotic cell population (DU145 cells; 10 μM, 48 h): 32.3%
apoptotic cell population (DU145 cells; 10 μM, 72 h): 46.4%
population of late apoptotic/necrotic cells (DU145 cells; 10 μM, 72 h): 28.4%
activation of caspase-3 (PC3 cells): able to induce
cleavage of PARP-1 (PC3 cells): able to induce
